Patent US11806346B2, “HTT modulators for treating Huntington's disease” (CHDI Foundation, Inc., priority 2020, dated 2023)

tested on: tHTT (total HTT protein); experiment: Time-resolved FRET assay, total huntingtin (tHTT) detection in cell lysates; assay type: cell-based, human; settings: GEN020 hESCs (mutant 48 Q repeat allele), compounds added for 48 hours, TR-FRET on lysate; read-out: tHTT EC50
How it was run: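 TR-FRET readout on cell lysates, with the donor/acceptor ratio reflecting relative total HTT.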

SMILES | EC50 [nM]
Cc1cn2cc(NC(=O)c3cnc(N4CC(CN5CCOCC5)C4)cn3)cc(F)c2n1 [Example 246, N-(8-fluoro-2-methylimidazo[1,2-a]pyridin-6-yl)-5-(3-(morpholinomethyl)azetidin-1-yl)pyrazine-2-carboxamide] | 100 to 500
Cc1cn2cc(NC(=O)c3cnc(N4CC(F)(CNC5CC5)C4)cn3)cc(F)c2n1 [Example 247, 5-(3-((cyclopropylamino)methyl)-3-fluoroazetidin-1-yl)-N-(8-fluoro-2-methylimidazo[1,2-a]pyridin-6-yl)pyrazine-2-carboxamide] | 100 to 500
Cc1cn2cc(NC(=O)c3cnc(N4CC(F)(CNC5CC5)C4)cn3)nc(C)c2n1 [Example 248, 5-(3-((cyclopropylamino)methyl)-3-fluoroazetidin-1-yl)-N-(2,8-dimethylimidazo[1,2-a]pyrazin-6-yl)pyrazine-2-carboxamide] | 500 to 1000
COc1nc(NC(=O)c2cnc(N3CC(F)(CNC4CC4)C3)cn2)cn2cc(C)nc12 [Example 249, 5-(3-((cyclopropylamino)methyl)-3-fluoroazetidin-1-yl)-N-(8-methoxy-2-methylimidazo[1,2-a]pyrazin-6-yl)pyrazine-2-carboxamide] | 100 to 500
Cc1cn2cc(NC(=O)c3cnc(N4CCC(F)(CNC5CC5)C4)cn3)nc(C)c2n1 (centres unmarked) [Example 250, 5-(3-((cyclopropylamino)methyl)-3-fluoropyrrolidin-1-yl)-N-(2,8-dimethylimidazo[1,2-a]pyrazin-6-yl)pyrazine-2-carboxamide] | 500 to 1000
CNCC1(F)CCN(c2cnc(C(=O)Nc3cc(F)c4nc(C)cn4c3)cn2)C1 (centres unmarked) [Example 251, N-(8-fluoro-2-methylimidazo[1,2-a]pyridin-6-yl)-5-(3-fluoro-3-((methylamino)methyl)pyrrolidin-1-yl)pyrazine-2-carboxamide] | 100 to 500
CCOc1cc2nn(C)cc2cc1NC(=O)c1cnc(N2CC3(CCCN(C)C3)C2)cn1 [Example 252, N-(6-ethoxy-2-methyl-2H-indazol-5-yl)-5-(6-methyl-2,6-diazaspiro[3.5]nonan-2-yl)pyrazine-2-carboxamide] | < 100
CCOc1cc2nn(C)cc2cc1NC(=O)c1cnc(N2CC[C@@H](CNC3CC3)C2)cn1 [Example 253, (S)-5-(3-((cyclopropylamino)methyl)pyrrolidin-1-yl)-N-(6-ethoxy-2-methyl-2H-indazol-5-yl)pyrazine-2-carboxamide] | 100 to 500
CCN[C@@H]1CCN(c2cnc(C(=O)Nc3cc4cn(C)nc4cc3OCC)cn2)C1 [Example 254, (R)—N-(6-ethoxy-2-methyl-2H-indazol-5-yl)-5-(3-(ethylamino)pyrrolidin-1-yl)pyrazine-2-carboxamide] | < 100

Next, values leading:

EC50 [nM] | SMILES
100 to 500 | CCOc1cc2nn(C)cc2cc1NC(=O)c1cnc(N2CC(CNC3CC3)C2)cn1 [Example 255, 5-(3-((cyclopropylamino)methyl)azetidin-1-yl)-N-(6-ethoxy-2-methyl-2H-indazol-5-yl)pyrazine-2-carboxamide]
100 to 500 | COc1cc(NC(=O)c2cnc(N3CC[C@@H](NC4CC4)C3)cn2)cn2cc(C)nc12 [Example 256, (R)-5-(3-(cyclopropylamino)pyrrolidin-1-yl)-N-(8-methoxy-2-methylimidazo[1,2-a]pyridin-6-yl)pyrazine-2-carboxamide]
100 to 500 | COc1cn2nc(C)cc2cc1NC(=O)c1cnc(N2CC[C@H](CNC3CC3)C2)cn1 [Example 257, (R)-5-(3-((cyclopropylamino)methyl)pyrrolidin-1-yl)-N-(6-methoxy-2-methylpyrazolo[1,5-a]pyridin-5-yl)pyrazine-2-carboxamide]
100 to 500 | COc1c(NC(=O)c2cnc(N3CC[C@H](CNC4CC4)C3)cn2)cc2cn(C)nc2c1F [Example 258, (R)-5-(3-((cyclopropylamino)methyl)pyrrolidin-1-yl)-N-(7-fluoro-6-methoxy-2-methyl-2H-indazol-5-yl)pyrazine-2-carboxamide]
100 to 500 | Cc1nc2c(F)cc(NC(=O)c3cnc(N4CC[C@@H](NC5CC5)C4)cn3)cc2o1 [Example 260]
